Data published in patent publication US20210128492A1, “COMPOSITION FOR PREVENTING AND/OR IMPROVING BRAIN DYSFUNCTION COMPRISING A LUTEIN OR SALT THEREOF AND A PLANT PRODUCT OF THE GENUS TRAPA” (Santen Pharmaceutical Co., Ltd., priority 2017, published 2021).

How the values were obtained:
[1] = test system: pyramidal cell layer of the hippocampus CA1 region; experiment: Histopathological assessment of KB stained brain specimens from the mice of Test Example 1; assay type: in vivo, mouse
Experimental: The brain was isolated from the mice in each group of Test Example 1 to prepare histopathological specimens, and the histopathological assessment of the prepared histopathological specimens was performed. Such test was performed twice. Each mouse in each group of Test Example 1 was anesthetized with an isoflurane solution and the chest of the mouse was opened to expose the heart. The exposed heart was cut into the auricle thereof. A polypropylene disposable syringe with an injection needle was used, the injection needle thereof was inserted from left ventricle and about 30 mL of ice-cooled saline was injected into the heart, and then the heart was perfused with about 30 mL of 10 vol % formalin neutral buffer solution. […] The isolated brain was embedded in paraffin according to any conventional method, one histopathological section was discontinuously prepared at around bregma-1.70 mm and around bregma-2.80 mm, respectively, and then Klüver-Barrera stained (KB stained) tissue specimens were prepared from each section. The cut brain was stored in 10 vol % formalin neutral buffer solution. • 1) For each specimen, the images of pyramidal cell layers of the hippocampus CA1 region closest to bregma-1.70 mm and bregma-2.80 mm from the optical microscope image (George Paxinos and Keith B. J. Franklin. (2013). The Mouse Brain in stereotaxic coordinates.

[2] = test system: Slc:ddY (SPF) mice injected with β-amyloid solution; experiment: Y-maze test (spontaneous alternation test) in mice injected with β-amyloid solution; assay type: in vivo, mouse
Experimental: Slc:ddY (SPF:Specific-Pathogen-Free) mice (Supply Resource: Japan SLC, Inc.) received the administration a sample (Vehicle control, Trapa japonica extract, Lutein, or Trapa japonica extract+Lutein) and then the injection of β-amyloid solution. For the mice, Y-maze test was performed to evaluate the improvement effects of Trapa japonica extract, Lutein, and a combination thereof on learning disorder. The test was performed twice. The Y-maze test was performed according to Takayoshi MAMIYA et al., “Effects of Pre-Germinated Brown Rice on β-Amyloid Protein-Induced Learning and Memory Deficits in Mice”, Biol. Pharm. Bull., July 2004, 27(7), 1041-1045 to evaluate the effects.
Male, 5-week-old, Slc:ddY (SPF) mouse(Body weight: 23˜28 g: n=32)
According to the following procedure, model mice were made using the above mice: Each mouse was anesthetized with the intraperitoneal administration (dosing volume: 10 mL/kg) of pentobarbital sodium (TOKYO CHEMICAL INDUSTRY CO., LTD.) at 40 mg/kg. After anesthesia, levobupivacaine hydrochloride (POPSCAINE® 0.25% injection, Maruishi Pharmaceutical Co., Ltd.) (0.1 mL) was administered subcutaneously into the scalp of the mouse. The hair on the top of the mouse was trimmed, and the head part was fixed to a brain stereotactic device. The scalp of the mouse was sterilized with iodine tincture, and then the head part was incised to expose the skull and the connective tissue on the skull was removed with a cotton swab. The treated skull was dried with a blower to find the position of bregma more easily. A hole for inserting a stainless steel pipe was drilled in the skull at 1 mm to the right and 0.2 mm behind bregma with a dental drill. The stainless steel pipe connected to a silicon tube with an outside diameter of 0.5 mm and a micro syringe was perpendicularly inserted to a depth of 2.5 mm from the bone surface. 3 μL of a β-amyloid solution ([…]) was injected (in the sham operation group, 3 μL of water for injection was injected) into the cerebral ventricle with a microsyringe pump for 3 minutes. After the injection, the inserted stainless steel pipe was allowed to stand for 3 minutes, and then the pipe was slowly removed. After removing the stainless steel pipe, the cranial was closed with a non-absorbable myelostatic agent (NESTOP®, Alfresa Pharma Co., Ltd.) and the scalp was sutured. The mouse were removed from the brain stereotactic device and returned to the breeding cage.
The β-amyloid solution was prepared by dissolving β-amyloid (Amyloid-β Protein(25-35); Polypeptide Laboratories) to 2 mM with water for injection and incubating the solution in the constant temperature storage at 37° C. for 4 days. Water for injection was used as the vehicle for sham operation. […]

[3] = β-amyloid model mice, 14 days gavage
[4] = 8 minutes, about 1 hour after administration on the 14th day, gavage once per day for 14 days (Trapa japonica extract 2 mg/kg, Lutein 0.4 mg/kg, combination 2 + 0.4 mg/kg), β-amyloid on day 8, average of n=10

In the case of `CC1=C[C@H](O)CC(C)(C)[C@H]1/C=C/C(C)=C/C=C/C(C)=C/C=C/C=C(C)/C=C/C=C(C)/C=C/C1=C(C)C[C@@H](O)CC1(C)C` [Lutein, (3R,3′R,6′R)-β,ε-carotene-3,3′-diol], the “Area of pyramidal cell layer” value ([1]; hippocampus CA1 region, KB stained specimens, mice of Test Example 1 (gavage 14 days; Trapa japonica extract 2 mg/kg, Lutein 0.4 mg/kg, combination 2 + 0.4 mg/kg), average of n=2) is reported as 224874 μm^2, the “Area of pyramidal cell layer of the hippocampus CA1 region as compared to the vehicle control group (in words)” value [1, 3] is reported as “increased” and the Spontaneous alternation rate [2, 4] is reported as 59.3%. The “The number of spontaneous alternation” value [2, 4] was 21.2 Count, the “The total number of entries” value [2, 4] was 37.0 Count and the “Spontaneous alternation rate as compared to the vehicle control group (in words)” value [2, 3] was “not improved”.
